According to patent publication US6440903B1, “Substituted 2,4-diamino-1,3,5-triazines as herbicides” (Bayer Aktiengesellschaft, priority 1996, dated 2002):

What was measured:
Sinapis = assay: Post-emergence test; format: in vivo; details: greenhouse, 1000 g of ai./ha, scored after three weeks
Experimental: (§1) Post-emergence Test Solvent: 5 parts by weight of acetone Emulsifier: 1 part by weight of alkylaryl polyglycol ether To produce a suitable preparation of active compound, 1 part by weight of active compound is mixed with the stated amount of solvent, the stated amount of emulsifier is added and the concentrate is diluted with water to the desired concentration. Test plants which have a height of 5-15 cm are sprayed with the preparation of active compound such that the particular amounts of active compounds desired are applied per unit area. The concentration of the spray liquor is chosen so that the particular amounts of active compound desired are applied in 1000 l of water/ha. After three weeks, the degree of damage to the plants is scored visually in % damage in comparison to the untreated control. The Figures Denote: 0%=no effect (like untreated control) 100%=total destruction

Avena fatua = assay: Post-emergence test; format: in vivo; details: greenhouse, 1000 g of ai./ha, scored after three weeks
Experimental: as §1

Alopecurus = assay: Post-emergence test; format: in vivo; details: greenhouse, 1000 g of ai./ha, scored after three weeks
Experimental: as §1

Setaria [1] = assay: Post-emergence test; format: in vivo; details: greenhouse, scored after three weeks; for % damage, Setaria / pest or weed control at 1000 g/ha: 1000 g of ai./ha
Experimental: as §1

Abutilon = assay: Post-emergence test; format: in vivo; details: greenhouse, 1000 g of ai./ha, scored after three weeks
Experimental: as §1

Amaranthus [2] = assay: Post-emergence test; format: in vivo; details: greenhouse, scored after three weeks; for % damage, Amaranthus / pest or weed control at 1000 g/ha: 1000 g of ai./ha
Experimental: as §1

weeds [3] = assay: Pre-emergence test (summary in text); format: in vivo; details: result in words
Experimental: (§2) Solvent: 5 parts by weight of acetone
(§3) Emulsifier: 1 part by weight of alkylaryl polyglycol ether
(§4) To produce a suitable preparation of active compound, 1 part by weight of active compound is mixed with the stated amount of solvent, the stated amount of emulsifier is added and the concentrate is diluted with water to the desired concentration.
Seeds of the test plants are sown in normal soil. After about 24 hours, the soil is watered with the preparation of active compound. The amount of water per unit area is advantageously kept constant. The concentration of active compound in the preparation is immaterial, only the application rate of active compound per unit area matters.
After three weeks, the degree of damage to the plants is scored visually in % damage in comparison to the development of the untreated control.
(§5) 0%=no effect (like untreated control)

Polygonum = assay: Pre-emergence test; format: in vivo; details: greenhouse, 1000 g of ai./ha, scored after three weeks
Experimental: (§6) Pre-emergence Test Solvent: 5 parts by weight of acetone Emulsifier: 1 part by weight of alkylaryl polyglycol ether To produce a suitable preparation of active compound, 1 part by weight of active compound is mixed with the stated amount of solvent, the stated amount of emulsifier is added and the concentrate is diluted with water to the desired concentration. Seeds of the test plants are sown in normal soil. After about 24 hours, the soil is watered with the preparation of active compound. The amount of water per unit area is advantageously kept constant. The concentration of active compound in the preparation is immaterial, only the application rate of active compound per unit area matters. After three weeks, the degree of damage to the plants is scored visually in % damage in comparison to the development of the untreated control. The figures denote: 0%=no effect (like untreated control) 100%=total destruction

Digitaria = assay: Pre-emergence test; format: in vivo; details: greenhouse, 1000 g of ai./ha, scored after three weeks
Experimental: as §6

Wheat = assay: Pre-emergence test; format: in vivo; details: greenhouse, 1000 g of ai./ha, scored after three weeks
Experimental: as §6

Veronica = assay: Pre-emergence test; format: in vivo; details: greenhouse, 1000 g of ai./ha, scored after three weeks
Experimental: as §6

Echinochloa = assay: Pre-emergence test; format: in vivo; details: greenhouse, 1000 g of ai./ha, scored after three weeks
Experimental: as §6

Solanum = assay: Pre-emergence test; format: in vivo; details: greenhouse, 1000 g of ai./ha, scored after three weeks
Experimental: as §6

Setaria [4] = assay: Pre-emergence test; format: in vivo; details: greenhouse, 1000 g of ai./ha, scored after three weeks
Experimental: as §6

Amaranthus [5] = assay: Pre-emergence test; format: in vivo; details: greenhouse, 1000 g of ai./ha, scored after three weeks
Experimental: as §6

weeds [6] = assay: Post-emergence test (summary in text); format: in vivo; details: result in words
Experimental: as §2, §3, §4
Test plants which have a height of 5-15 cm are sprayed with the preparation of active compound such that the particular amounts of active compounds desired are applied per unit area. The concentration of the spray liquor is chosen so that the particular amounts of active compound desired are applied in 1000 l of water/ha.
After three weeks, the degree of damage to the plants is scored visually in % damage in comparison to the untreated control.
as §5

Galium = assay: Post-emergence test; format: in vivo; details: greenhouse, scored after three weeks
Experimental: as §1

Maize = assay: Post-emergence test; format: in vivo; details: greenhouse, 1000 g of ai./ha, scored after three weeks
Experimental: as §1

[7] = Setaria, 504 h, read-out: % damage, Setaria
[8] = Amaranthus, 504 h, read-out: % damage, Amaranthus

Compound: CC(Nc1nc(N)nc(Cl)n1)c1ccc(Cl)cc1 (stereo not shown) [drawing 108]
- % damage, Sinapis (Sinapis): 100%
- % damage, Avena fatua (Avena fatua): 80%
- % damage, Alopecurus (Alopecurus): 70%
- % damage, Setaria (Setaria [1]): 100%
- % damage, Abutilon (Abutilon): 100%
- % damage, Amaranthus (Amaranthus [2]): 100%

Compound: CC(Nc1nc(N)nc(Cl)n1)c1ccc(Cl)cc1 (stereo not shown) [drawing 107]
- % damage, Sinapis (Sinapis): 100%
- % damage, Avena fatua (Avena fatua): 100%
- % damage, Alopecurus (Alopecurus): 100%
- % damage, Setaria (Setaria [1]): 100%
- % damage, Abutilon (Abutilon): 100%
- % damage, Amaranthus (Amaranthus [2]): 100%

Compound: COSc1ccc(C(C)Nc2nc(N)nc(C(C)Cl)n2)cc1 (stereo not shown)
- % damage, Sinapis (Sinapis): 100%
- pest or weed control at 1000 g/ha (Setaria [1]; [7]): 100%
- pest or weed control at 1000 g/ha (Amaranthus [2]; [8]): 100%

Compound: CC(Nc1nc(N)nc(C(F)(F)F)n1)c1ccc(Cl)cc1 (stereo not shown) [drawing 109]
- % damage, Sinapis (Sinapis): 100%
- % damage, Avena fatua (Avena fatua): 100%
- % damage, Alopecurus (Alopecurus): 100%
- pest or weed control at 1000 g/ha (Setaria [1]; [7]): 100%
- % damage, Abutilon (Abutilon): 100%
- pest or weed control at 1000 g/ha (Amaranthus [2]; [8]): 100%

Compound: CC(Nc1nc(N)nc(C(Cl)Cl)n1)c1ccc(Cl)cc1 (stereo not shown) [Example 149]
- melting point: 152 °C
- activity against weeds (weeds [3]): strong activity

Compound: CC(Nc1nc(N)nc(C(F)C(F)(F)F)n1)c1ccc(Cl)cc1 (stereo not shown) [drawing 101]
- % damage, Polygonum (Polygonum): 100%
- % damage, Digitaria (Digitaria): 100%
- % damage, Wheat (Wheat): 0%
- % damage, Veronica (Veronica): 100%
- % damage, Echinochloa (Echinochloa): 100%
- % damage, Solanum (Solanum): 100%
- % damage, Setaria (Setaria [4]): 100%
- % damage, Amaranthus (Amaranthus [5]): 100%

Compound: CC(=O)Nc1nc(NC(C)c2ccc(Cl)cc2)nc(C(F)C(F)(F)F)n1 (stereo not shown) [drawing 102]
- % damage, Polygonum (Polygonum): 100%
- % damage, Digitaria (Digitaria): 100%
- % damage, Wheat (Wheat): 0%
- % damage, Veronica (Veronica): 100%
- % damage, Echinochloa (Echinochloa): 100%
- % damage, Solanum (Solanum): 100%
- % damage, Setaria (Setaria [4]): 100%
- % damage, Amaranthus (Amaranthus [5]): 100%

Compound: CC(Nc1nc(N)nc(C(C)(C)F)n1)c1ccc(Cl)cc1 (stereo not shown) [drawing 110]
- % damage, Sinapis (Sinapis): 100%
- % damage, Avena fatua (Avena fatua): 95%
- % damage, Alopecurus (Alopecurus): 90%
- pest or weed control at 1000 g/ha (Setaria [1]; [7]): 100%
- % damage, Abutilon (Abutilon): 100%
- pest or weed control at 1000 g/ha (Amaranthus [2]; [8]): 100%

Compound: CC(=O)Nc1nc(NC(C)c2ccc(Cl)cc2)nc(C(Cl)Cl)n1 (stereo not shown) [Example 145]
- melting point: 132 °C
- activity against weeds (weeds [6]): strong activity

Compound: COCc1nc(NC(C)=O)nc(NC(C)c2ccc(SOC)cc2)n1 (stereo not shown)
- % damage, Sinapis (Sinapis): 100%
- pest or weed control at 1000 g/ha (Setaria [1]; [7]): 100%
- pest or weed control at 1000 g/ha (Amaranthus [2]; [8]): 100%

Compound: CC(=O)Nc1nc(NC(C)c2ccc(Cl)cc2)nc(C(C)(Cl)Cl)n1 (stereo not shown) [drawing 103]
- % damage, Polygonum (Polygonum): 100%
- % damage, Digitaria (Digitaria): 100%
- % damage, Wheat (Wheat): 0%
- % damage, Veronica (Veronica): 100%
- % damage, Echinochloa (Echinochloa): 100%
- % damage, Solanum (Solanum): 100%
- % damage, Setaria (Setaria [4]): 95%
- % damage, Amaranthus (Amaranthus [5]): 100%

Compound: COSc1ccc(C(C)Nc2nc(NC(C)=O)nc(C(Cl)Cl)n2)cc1 (stereo not shown)
- pest or weed control at 500 g/ha (Setaria [1]; Setaria, 504 h, 500 g of ai./ha, read-out: % damage, Setaria): 90%
- pest or weed control at 500 g/ha (Amaranthus [2]; Amaranthus, 504 h, 500 g of ai./ha, read-out: % damage, Amaranthus): 100%
- % damage, Galium (Galium; 500 g of ai./ha): 100%

Compound: COCc1nc(N)nc(NC(C)c2ccc(Cl)cc2)n1 (stereo not shown) [Example 98]
- melting point: 149 °C
- activity against weeds (weeds [6]): strong activity

Compound: CC(Cl)c1nc(N)nc(NC(C)c2ccc(Cl)cc2)n1 (stereo not shown) [Example 157]
- activity against weeds (weeds [3]): strong activity

Compound: CC(Nc1nc(N)nc(Cl)n1)c1ccc(Cl)cc1 (stereo not shown) [drawing 106]
- % damage, Alopecurus (Alopecurus): 80%
- % damage, Maize (Maize): 20%
- pest or weed control at 1000 g/ha (Setaria [1]; [7]): 90%
- pest or weed control at 1000 g/ha (Amaranthus [2]; [8]): 100%

Compound: CC(F)c1nc(N)nc(NC(C)c2ccc(Cl)cc2)n1 (stereo not shown) [Example 13]
- activity against weeds (weeds [6]): strong activity
- activity against weeds (weeds [3]): strong activity

Compound: CSc1ccc(C(C)Nc2nc(N)nc(C(Cl)Cl)n2)cc1 (stereo not shown) [Example 108]
- melting point: 125 °C
- activity against weeds (weeds [6]): strong activity

Compound: COCc1nc(NC(C)=O)nc(NC(C)c2ccc(Cl)cc2)n1 (stereo not shown) [Example 178]
- melting point: 155 °C
- activity against weeds (weeds [6]): strong activity

Compound: COc1ccc(C(C)Nc2nc(NC(C)=O)nc(C(F)(F)F)n2)cc1 (stereo not shown) [Example 82]
- melting point: 130 °C
- activity against weeds (weeds [6]): strong activity

Compound: CC(=O)Nc1nc(NC(C)c2ccc(Cl)cc2)nc(C(Cl)Cl)n1 (stereo not shown) [drawing 148]
- % damage, Avena fatua (Avena fatua): 70%
- pest or weed control at 1000 g/ha (Setaria [1]; [7]): 100%
- pest or weed control at 1000 g/ha (Amaranthus [2]; [8]): 100%
- % damage, Galium (Galium; 1000 g of ai./ha): 70%

Compound: CC(Nc1nc(N)nc(C(C)(C)F)n1)c1ccc(Cl)cc1 (stereo not shown) [Example 16]
- activity against weeds (weeds [6]): strong activity
- activity against weeds (weeds [3]): strong activity

Compound: CCC(Nc1nc(N)nc(C(F)(F)F)n1)c1ccc(Cl)cc1 (stereo not shown) [Example 85]
- melting point: 145 °C
- activity against weeds (weeds [6]): strong activity

Compound: CC(Nc1nc(N)nc(C(Cl)Cl)n1)c1ccc(Cl)cc1 (stereo not shown) [Example 168]
- melting point: 133 °C
- activity against weeds (weeds [6]): strong activity

Compound: CC(=O)Nc1nc(NC(C)c2ccc(Cl)cc2)nc(C(C)Cl)n1 (stereo not shown) [Example 146]
- melting point: 126 °C
- activity against weeds (weeds [6]): strong activity

Compound: CC(Nc1nc(N)nc(C(C)(Cl)Cl)n1)c1ccc(Cl)cc1 (stereo not shown) [Example 159]
- activity against weeds (weeds [3]): strong activity

Compound: COCc1nc(NC(C)=O)nc(NC(C)c2ccc(SC)cc2)n1 (stereo not shown) [drawing 143]
- % damage, Sinapis (Sinapis): 100%
- % damage, Maize (Maize): 0%
- pest or weed control at 1000 g/ha (Setaria [1]; [7]): 100%
- pest or weed control at 1000 g/ha (Amaranthus [2]; [8]): 100%

Compound: CC(F)c1nc(N)nc(NC(C)c2ccc(Cl)cc2)n1 (stereo not shown) [Example 14]
- activity against weeds (weeds [3]): strong activity

Compound: CC(=O)Nc1nc(NC(C)c2ccc(Cl)cc2)nc(C(C)(Cl)Cl)n1 (stereo not shown) [Example 160]
- melting point: 118 °C
- activity against weeds (weeds [3]): strong activity

Compound: CC(Nc1nc(N)nc(C(C)(C)F)n1)c1ccc(Cl)cc1 (stereo not shown) [Example 22]
- activity against weeds (weeds [3]): strong activity
